Data published in PMC10066365, “Nemacol is a small molecule inhibitor of C. elegans vesicular acetylcholine transporter with anthelmintic potential” (Nature Communications, 2023).
pKi: −log10 of the molar value. “And” between values parts separate entries of the source, which are not always exact repeats. Equal values may be shown once. Read-outs that look alike come from different tables or passages of the source.

Key:
[1] = system: C. elegans unc-17 mutants; settings: unc-17 (md414), 60 min
Method: Significance was calculated using Fisher’s method (one-sided comparisons; see 'Methods'). […] Worms were incubated on the plates for 60 min.
Locomotor phenotype analyses were done in 24-well plates with 1 mL of MYOB substrate (27.5 g Trizma HCl, 12 g Trizma Base, 230 g bacto tryptone, 10 g NaCl, 0.4 g cholesterol (95%)) seeded with 25 µL of OP50 Escherichia coli on each well. Each compound was added to the MYOB substrate before pouring to achieve the desired final concentrations of 30 µM or 60 µM after diffusion through the media. Synchronized young adult worms are transferred into each well using a platinum wire pick. A Leica MZ75 stereomicroscope was used to visualize the movement of worms on the solid substrate. The specific dominant locomotor phenotype (i.e. ‘Punc’, ‘paralyzed’, ‘coiler’ or ‘wild-type locomotion’) was scored after the touch on the head with a platinum wire over a ~3–5 s of observation. […] Coiled animals were not scored as paralyzed despite sometimes not responding to light touch.

rat VAChT = molecular target: T1, rat VAChT (Rattus norvegicus, UniProt Q62666); test: [3H]Vesamicol competitive radioligand binding, PC12 cells expressing ratVAChT; settings: for specific binding in % of total binding (corrected by nonspecific binding NB), mean: rVAChT-PC12, 21°C, 1% DMSO
T1 construct: expressed in transfected cells; host or cells: rat PC12 (PC12 A123.7) cells, stably transfected; shared by Dr. Ali Roghani (Texas Tech University)
T1 sequence (Q62666 1-530): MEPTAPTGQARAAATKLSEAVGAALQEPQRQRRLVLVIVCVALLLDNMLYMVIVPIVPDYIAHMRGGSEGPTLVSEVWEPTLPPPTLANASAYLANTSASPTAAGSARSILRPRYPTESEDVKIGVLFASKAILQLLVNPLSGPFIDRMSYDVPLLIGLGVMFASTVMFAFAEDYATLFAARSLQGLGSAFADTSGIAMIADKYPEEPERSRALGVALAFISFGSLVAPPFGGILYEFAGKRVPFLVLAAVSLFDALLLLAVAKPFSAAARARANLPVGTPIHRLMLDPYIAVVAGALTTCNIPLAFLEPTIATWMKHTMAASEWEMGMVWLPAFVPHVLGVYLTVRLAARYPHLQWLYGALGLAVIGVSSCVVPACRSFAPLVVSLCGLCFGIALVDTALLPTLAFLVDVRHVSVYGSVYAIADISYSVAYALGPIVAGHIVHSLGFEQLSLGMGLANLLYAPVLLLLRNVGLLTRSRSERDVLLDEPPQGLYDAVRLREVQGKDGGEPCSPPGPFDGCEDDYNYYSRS

C. elegans = test: Suppression of trichlorfon (AChE inhibitor) paralysis, double dose-response, scored after 80 min; assay type: in vivo, Caenorhabditis elegans; settings: wild-type, bio rep 1-3
[2] = 15 µM, adult worms, average of 3 biological repeats
[3] = 30 µM, average of 3 biological repeats
[4] = 60 µM, average of 3 biological repeats

O=[N+]([O-])c1ccc(N2CCN(CC3CCCCC3)CC2)cc1 [Nemacol-1]
Fraction Jerky-Unc [1, 2]: 0.60
Fraction No Phenotype [1, 2]: 0.21
Fraction Parayzed [1, 2]: 0.00
Fraction Coiled [1, 3]: 0.44
Fraction Jerky-Unc [1, 3]: 0.47
Fraction No Phenotype [1, 3]: 0.037
Fraction Parayzed [1, 3]: 0.06
Fraction Coiled [1, 4]: 0.59
Fraction Jerky-Unc [1, 4]: 0.27
Fraction No Phenotype [1, 4]: 0.00
Fraction Parayzed [1, 4]: 0.13
Fraction Coiled, Averages of 3 biological repeats ([1]; 15 µM): 0.25
Fraction Jerky-Unc, Averages of 3 biological repeats ([1]; 15 µM): 0.52
Fraction No Phenotype, Averages of 3 biological repeats ([1]; 15 µM): 0.23
Fraction Parayzed, Averages of 3 biological repeats ([1]; 15 µM): 0.00
C1 (loose coil) worm count ([1]; 15 µM, single Bio Rep): 1 and 2
Fraction Jerky-Unc ([1]; 15 µM, single Bio Rep): 0.35 and 0.6111 and 0.5882
Fraction Parayzed ([1]; 15 µM, single Bio Rep): 0
J (jerky-unc) worm count ([1]; 15 µM, single Bio Rep): 11 and 7 and 10
P (paralyzed) worm count ([1]; 15 µM, single Bio Rep): 0
Fraction Coiled, Averages of 3 biological repeats ([1]; 30 µM): 0.54
Fraction Jerky-Unc, Averages of 3 biological repeats ([1]; 30 µM): 0.44
Fraction No Phenotype, Averages of 3 biological repeats ([1]; 30 µM): 0.00
Fraction Parayzed, Averages of 3 biological repeats ([1]; 30 µM): 0.0185
C1 (loose coil) worm count ([1]; 30 µM, single Bio Rep): 4 and 2 and 3
C2 (tight coil) worm count ([1]; 30 µM, single Bio Rep): 5 and 8 and 6
Fraction Coiled ([1]; 30 µM, single Bio Rep): 0.50 and 0.63
Fraction Jerky-Unc ([1]; 30 µM, single Bio Rep): 0.5 and 0.4444 and 0.375
Fraction No Phenotype ([1]; 30 µM, single Bio Rep): 0.00
J (jerky-unc) worm count ([1]; 30 µM, single Bio Rep): 8 and 9 and 6
NP (no phene) worm count ([1]; 30 µM, single Bio Rep): 0
Fraction Coiled, Averages of 3 biological repeats ([1]; 60 µM): 0.49
Fraction Jerky-Unc, Averages of 3 biological repeats ([1]; 60 µM): 0.28
Fraction No Phenotype, Averages of 3 biological repeats ([1]; 60 µM): 0.00
Fraction Parayzed, Averages of 3 biological repeats ([1]; 60 µM): 0.22
C2 (tight coil) worm count ([1]; 60 µM, single Bio Rep): 6
Fraction Coiled ([1]; 60 µM, single Bio Rep): 0.56 and 0.59 and 0.33
Fraction No Phenotype ([1]; 60 µM, single Bio Rep): 0.00
J (jerky-unc) worm count ([1]; 60 µM, single Bio Rep): 6 and 3
NP (no phene) worm count ([1]; 60 µM, single Bio Rep): 0
activity ratio, mammalian VAChT Ki to C. elegans in vivo EC50 (rat VAChT): 0.11
pKi (rat VAChT; Ki, each of two biological replicates): 6.06 and 6.18
specific binding in % of total binding (corrected by nonspecific binding NB), mean (rat VAChT; competitor 1.00E-04 M, experiment 2019-11-21, 2.20E-09 M 3H-vesamicol, 90 min): 2.84%
specific binding in % of total binding (corrected by nonspecific binding NB), mean (rat VAChT; competitor 1.00E-05 M, experiment 2019-10-30, 2.92E-09 M 3H-vesamicol, 120 min): 34%
specific binding in % of total binding (corrected by nonspecific binding NB), mean (rat VAChT; competitor 1.00E-05 M, experiment 2019-11-21, 2.20E-09 M 3H-vesamicol, 90 min): 10%
specific binding in % of total binding (corrected by nonspecific binding NB), mean (rat VAChT; competitor 1.00E-06 M, experiment 2019-10-30, 2.92E-09 M 3H-vesamicol, 120 min): 51%
specific binding in % of total binding (corrected by nonspecific binding NB), mean (rat VAChT; competitor 1.00E-06 M, experiment 2019-11-21, 2.20E-09 M 3H-vesamicol, 90 min): 52%
specific binding in % of total binding (corrected by nonspecific binding NB), mean (rat VAChT; competitor 1.00E-07 M, experiment 2019-10-30, 2.92E-09 M 3H-vesamicol, 120 min): 86%
specific binding in % of total binding (corrected by nonspecific binding NB), mean (rat VAChT; competitor 1.00E-07 M, experiment 2019-11-21, 2.20E-09 M 3H-vesamicol, 90 min): 82%
specific binding in % of total binding (corrected by nonspecific binding NB), mean (rat VAChT; competitor 1.00E-08 M, experiment 2019-10-30, 2.92E-09 M 3H-vesamicol, 120 min): 94%
specific binding in % of total binding (corrected by nonspecific binding NB), mean (rat VAChT; competitor 1.00E-08 M, experiment 2019-11-21, 2.20E-09 M 3H-vesamicol, 90 min): 90%
specific binding in % of total binding (corrected by nonspecific binding NB), mean (rat VAChT; competitor 1.00E-09 M, experiment 2019-10-30, 2.92E-09 M 3H-vesamicol, 120 min): 96%
specific binding in % of total binding (corrected by nonspecific binding NB), mean (rat VAChT; competitor 1.00E-09 M, experiment 2019-11-21, 2.20E-09 M 3H-vesamicol, 90 min): 88%
specific binding in % of total binding (corrected by nonspecific binding NB), mean (rat VAChT; competitor 1.00E-10 M, experiment 2019-10-30, 2.92E-09 M 3H-vesamicol, 120 min): 95%
specific binding in % of total binding (corrected by nonspecific binding NB), mean (rat VAChT; competitor 1.00E-10 M, experiment 2019-11-21, 2.20E-09 M 3H-vesamicol, 90 min): 92%
specific binding in % of total binding (corrected by nonspecific binding NB), mean (rat VAChT; competitor 1.00E-11 M, experiment 2019-10-30, 2.92E-09 M 3H-vesamicol, 120 min): 94%
rat VAChT Ki fold difference to vesamicol (rat VAChT; fold less affinity than vesamicol): 37 fold
pKi (rat VAChT; in vitro mammalian VAChT Ki): 6.11
pKi (rat VAChT; ratVAChT Ki, [3H]Vesamicol displacement, mean): 6.11
% para (percentage of animals able to adopt a clear sinusoidal wave pattern upon touch on the nose) (C. elegans; Nemacol-1 3.75 uM + trichlorfon 0 uM): 100%
% para (percentage of animals able to adopt a clear sinusoidal wave pattern upon touch on the nose) (C. elegans; Nemacol-1 3.75 uM + trichlorfon 25 uM): 96.4286% and 92.8571% and 100%
% para (percentage of animals able to adopt a clear sinusoidal wave pattern upon touch on the nose) (C. elegans; Nemacol-1 3.75 uM + trichlorfon 50 uM): 96.4286% and 85.7143% and 75%
% para (percentage of animals able to adopt a clear sinusoidal wave pattern upon touch on the nose) (C. elegans; Nemacol-1 3.75 uM + trichlorfon 100 uM): 28.5714% and 32.1429% and 39.2857%
% para (percentage of animals able to adopt a clear sinusoidal wave pattern upon touch on the nose) (C. elegans; Nemacol-1 3.75 uM + trichlorfon 200 uM): 10.7143% and 7.143%
% para (percentage of animals able to adopt a clear sinusoidal wave pattern upon touch on the nose) (C. elegans; Nemacol-1 3.75 uM + trichlorfon 400 uM): 3.571% and 0%
% para (percentage of animals able to adopt a clear sinusoidal wave pattern upon touch on the nose) (C. elegans; Nemacol-1 3.75 uM + trichlorfon 800 uM): 0%
% para (percentage of animals able to adopt a clear sinusoidal wave pattern upon touch on the nose) (C. elegans; Nemacol-1 15 uM + trichlorfon 0 uM): 96.4286% and 100%
% para (percentage of animals able to adopt a clear sinusoidal wave pattern upon touch on the nose) (C. elegans; Nemacol-1 15 uM + trichlorfon 25 uM): 100%
% para (percentage of animals able to adopt a clear sinusoidal wave pattern upon touch on the nose) (C. elegans; Nemacol-1 15 uM + trichlorfon 50 uM): 92.8571% and 46.4286% and 64.2857%
% para (percentage of animals able to adopt a clear sinusoidal wave pattern upon touch on the nose) (C. elegans; Nemacol-1 15 uM + trichlorfon 100 uM): 82.1429% and 53.5714% and 71.4286%
% para (percentage of animals able to adopt a clear sinusoidal wave pattern upon touch on the nose) (C. elegans; Nemacol-1 15 uM + trichlorfon 400 uM): 14.2857% and 7.143%
% para (percentage of animals able to adopt a clear sinusoidal wave pattern upon touch on the nose) (C. elegans; Nemacol-1 15 uM + trichlorfon 800 uM): 0% and 3.571%
% para (percentage of animals able to adopt a clear sinusoidal wave pattern upon touch on the nose) (C. elegans; Nemacol-1 30 uM + trichlorfon 0 uM): 100%
% para (percentage of animals able to adopt a clear sinusoidal wave pattern upon touch on the nose) (C. elegans; Nemacol-1 30 uM + trichlorfon 25 uM): 100%
% para (percentage of animals able to adopt a clear sinusoidal wave pattern upon touch on the nose) (C. elegans; Nemacol-1 30 uM + trichlorfon 50 uM): 85.7143% and 89.2857% and 92.8571%
% para (percentage of animals able to adopt a clear sinusoidal wave pattern upon touch on the nose) (C. elegans; Nemacol-1 30 uM + trichlorfon 100 uM): 78.5714% and 82.1429%
% para (percentage of animals able to adopt a clear sinusoidal wave pattern upon touch on the nose) (C. elegans; Nemacol-1 30 uM + trichlorfon 200 uM): 53.5714% and 32.1429% and 39.2857%
% para (percentage of animals able to adopt a clear sinusoidal wave pattern upon touch on the nose) (C. elegans; Nemacol-1 30 uM + trichlorfon 800 uM): 3.571%
% para (percentage of animals able to adopt a clear sinusoidal wave pattern upon touch on the nose) (C. elegans; Nemacol-1 60 uM + trichlorfon 0 uM): 50% and 82.1429% and 71.4286%
% para (percentage of animals able to adopt a clear sinusoidal wave pattern upon touch on the nose) (C. elegans; Nemacol-1 60 uM + trichlorfon 25 uM): 85.7143% and 75% and 78.5714%
% para (percentage of animals able to adopt a clear sinusoidal wave pattern upon touch on the nose) (C. elegans; Nemacol-1 60 uM + trichlorfon 50 uM): 78.5714% and 57.1429% and 67.8571%
% para (percentage of animals able to adopt a clear sinusoidal wave pattern upon touch on the nose) (C. elegans; Nemacol-1 60 uM + trichlorfon 100 uM): 53.5714% and 67.8571%
% para (percentage of animals able to adopt a clear sinusoidal wave pattern upon touch on the nose) (C. elegans; Nemacol-1 60 uM + trichlorfon 200 uM): 35.7143% and 57.1429% and 50%
% para (percentage of animals able to adopt a clear sinusoidal wave pattern upon touch on the nose) (C. elegans; Nemacol-1 60 uM + trichlorfon 800 uM): 3.571% and 7.143%
% para (percentage of animals able to adopt a clear sinusoidal wave pattern upon touch on the nose) (C. elegans; Nemacol-1 […] + trichlorfon 25 uM): 100%
% para (percentage of animals able to adopt a clear sinusoidal wave pattern upon touch on the nose) (C. elegans; Nemacol-1 […] + trichlorfon 800 uM): 0%
